Read-outs that look alike come from different tables or passages of the source.
Assays:
SW-620 cells = assay: Annexin V-FITC/propidium iodide apoptosis assay; type: cell-based, human; settings: for total increase in apoptosis vs control untreated cells: 24 h; for induction of apoptosis (in words): SW-620, 5 and 10 µM; for total increase in apoptosis vs control untreated cells, range: SW-620, over the concentrations 5 and 10 µM
Procedure: Further investigation for compounds 5a and 5d concerning their potential role of apoptosis induction, using Annexin V-FITC/PI double staining assay, was performed to evaluate their impact on both early and late apoptosis percentages in SW-620 cancer cell lines (Figure 6). […] As shown, compound 5a induced approximately 1.7-folds and 3.8-folds total increase in apoptosis at concentration of 5 µM and 10 µM, respectively, in comparison to the control untreated SW-620 cell line (Figure 6(A)).
Figure 6. (A) AnnexinV/PI apoptosis assay for compound 5a. Tow concentrations (5 and 10 µM) of compound 5a, in addition untreated plate as a control were used to test the apoptotic effect by using Annexin V/PI in SW-620 cell line. Cells were treated with the compound 5a for 24 h. (B) AnnexinV/PI apoptosis assay for compound 5d. Tow concentrations (5 and 10 µM) of compound 5d, in addition untreated plate as a control were used to test the apoptotic effect by using Annexin V/PI in SW-620 cell line. Cells were treated with the compound 5d for 24 h. […] Their printed values are 1.93%, 2.06%, 1.81% in panel A and 0.73%, 2.01%, 1.62% in panel B. […]
2.4. Measurement of Apoptosis by Annexin V-FITC/PI Assay
Induction of apoptosis was measured by Dead Cell Apoptosis Kit with Annexin V FITC and PI, for flow cytometry (Thermofischer scientific, OR, USA) according to the manufacturer’s instruction. SW620 cells were seeded in a 6-well plate (3 × 10^5 cells per well) and treated with the various compound for 24h. Both floating and adherent cells were harvested, pooled together, and incubated with Annexin V-FITC and PI for 15 min on ice in dark. The cells were analyzed by BD FACSCalibur™ cell analyzer (BD Biosciences, CA, USA) at an emission of 530 nm (FL1 channel) and >575 nm (FL3). […]

[1] = test system: Full panel of NCI cancer cell lines; type: cell-based
HCC-2998 = type: cell-based; settings: HCC-2998, five-dose test
MOLT-4 = type: cell-based; settings: MOLT-4, five-dose test
SNB-75 = type: cell-based; settings: SNB-75, five-dose test
RXF 393 = type: cell-based, human; settings: RXF 393, five-dose test
HL60(TB) = type: cell-based
HOP-62 = type: cell-based; settings: HOP-62, five-dose test
NCI-H522 = type: cell-based; settings: NCI-H522, five-dose test
[2] = test system: non-small cell lung cancer subpanel; type: cell-based, human
HS 578 T = type: cell-based; settings: five-dose test
NCI/ADR-RES = type: cell-based; settings: Homo sapiens, five-dose test
HT29 = type: cell-based; settings: Homo sapiens, HT-29; HT29, five-dose test; read-out: LC50 (the source's name)
HCT-15 = type: cell-based; settings: HCT-15, five-dose test
PC-3 = type: cell-based; settings: PC-3, five-dose test
MDA-MB-435 = type: cell-based; settings: MDA-MB-435, five-dose test
T-47D = type: cell-based; settings: Homo sapiens, T47D, five-dose test
UACC-257 = type: cell-based; settings: UACC-257, five-dose test
786-0 = type: cell-based, human; settings: 786-0, five-dose test
COLO 205 = type: cell-based; settings: COLO 205, five-dose test
IGROV1 = type: cell-based; settings: Homo sapiens, IGROV-1; IGROV1, five-dose test
U251 = type: cell-based, human; settings: U251, five-dose test
CAKI-1 = type: cell-based, human; settings: CAKI-1, five-dose test
Melanoma subpanel = type: cell-based, human
[3] = Homo sapiens, read-out: LC50 (the source's name)

Cc1c(C(=O)N/N=C2\C(=O)Nc3ccccc32)oc2ccccc12 [Compound 5a]
total increase in apoptosis vs control untreated cells (SW-620 cells; SW-620, 5 µM): approximately 1.7 folds
total increase in apoptosis vs control untreated cells (SW-620 cells; SW-620, 10 µM): ~3.8 folds
induction of apoptosis (in words) (SW-620 cells): dose dependent induction of apoptosis
total increase in apoptosis vs control untreated cells, range (SW-620 cells): 1.7–3.8 folds

COc1ccc2c(c1)/C(=N/NC(=O)c1oc3ccccc3c1C)C(=O)N2 [Compound 5d]
LC50 ([1]; Homo sapiens, all cancer cell lines examined except HOP-62, SNB-75 and SK-MEL-2): > 100 µM
GI50 ([1]; Homo sapiens, all examined cancer cell subpanels except HL60(TB), read-out: GI50 values range): 1.25 to 6.07 µM
GI50 ([1]; Homo sapiens, average sensitivity for all cell lines, read-out: Full panel MG-MID (GI50)): 2.51 µM
selectivity index range over subpanels ([1]; all tested subpanels): 0.78 to 1.30
TGI ([1]; entire Leukaemia, Colon cancer and Prostate Cancer and the remaining examined cancer cell lines): more than 100 µM
TGI (HCC-2998): >100 µM
CC50 (HCC-2998; [3]): > 100 µM
LC50 (MOLT-4; Homo sapiens): > 100 µM
TGI (MOLT-4): >100 µM
GI50 (SNB-75; Homo sapiens): 1.25 µM
CC50 (SNB-75; [3]): 6.04 µM
TGI (SNB-75): 2.75 µM
GI50 (RXF 393; Homo sapiens): 1.79 µM
TGI (RXF 393): 3.70 µM
GI50 (HL60(TB); Homo sapiens, HL-60, five-dose test): > 100 µM
CC50 (HL60(TB); Homo sapiens, HL-60, five-dose test, read-out: LC50 (the source's name)): > 100 µM
TGI (HL60(TB); five-dose test): >100 µM
TGI (HOP-62): 4.02 µM
GI50 (HOP-62; Homo sapiens): 1.92 µM
CC50 (HOP-62; [3]): 8.44 µM
GI50 (NCI-H522; Homo sapiens): 6.07 µM
LC50 (concentration killing 50% of cells) (NCI-H522; Homo sapiens): > 100 µM
TGI (NCI-H522): >100 µM
total increase in apoptosis vs control untreated cells (SW-620 cells; SW-620, 5 µM): ~2.9 folds
total increase in apoptosis vs control untreated cells (SW-620 cells; SW-620, 10 µM): ~3.8 folds
induction of apoptosis (in words) (SW-620 cells): dose dependent induction of apoptosis
total increase in apoptosis vs control untreated cells, range (SW-620 cells): 2.9–3.8 folds
GI50 ([2]; Homo sapiens, non-small cell lung cancer subpanel, read-out: MG-MID (GI50 average of the subpanel)): 2.8 µM
Selectivity index ([2]; full panel MID / subpanel MID, non-small cell lung cancer): 0.89
GI50 (HS 578 T; Homo sapiens): 2.41 µM
LC50 (HS 578 T; Homo sapiens): > 100 µM
TGI (HS 578 T): 7.72 µM
GI50 (NCI/ADR-RES): 2.47 µM
LC50 (NCI/ADR-RES): > 100 µM
CC50 (HT29): > 100 µM
TGI (HCT-15): >100 µM
LC50 (HCT-15; Homo sapiens): > 100 µM
CC50 (PC-3; [3]): > 100 µM
TGI (PC-3): >100 µM
CC50 (MDA-MB-435; [3]): > 100 µM
TGI (MDA-MB-435): >100 µM
GI50 (T-47D): 1.7 µM
LC50 (T-47D): > 100 µM
LC50 (concentration killing 50% of cells) (UACC-257; Homo sapiens): > 100 µM
TGI (UACC-257): >100 µM
TGI (786-0): 3.84 µM
GI50 (786-0; Homo sapiens): 1.99 µM
TGI (COLO 205): >100 µM
LC50 (concentration killing 50% of cells) (COLO 205; Homo sapiens): > 100 µM
GI50 (IGROV1): 2.1 µM
LC50 (IGROV1): > 100 µM
GI50 (U251; Homo sapiens, U-251): 2.03 µM
TGI (U251): 4.26 µM
TGI (CAKI-1): 3.24 µM
GI50 (CAKI-1; Homo sapiens): 1.56 µM
GI50 (Melanoma subpanel; Homo sapiens, Melanoma subpanel, read-out: MG-MID (GI50 average of the subpanel)): 3.18 µM
Selectivity index (Melanoma subpanel; full panel MID / subpanel MID, Melanoma): 0.78

Reference: publication PMC8245078, “Development of novel benzofuran-isatin conjugates as potential antiproliferative agents with apoptosis inducing mechanism in Colon cancer” (Journal of Enzyme Inhibition and Medicinal Chemistry, 2021)
